# From patent US12195457B2, “Aromatic ring derivative as immunoregulation and preparation method and application of aromatic ring derivative” (SHANGHAI JEMINCARE PHARMACEUTICALS CO., LTD, priority 2018, dated 2025)
# Columns and labels:
# [1] = tested on: experimental autoimmune encephalomyelitis (EAE); experiment: Experimental autoimmune encephalomyelitis (EAE) in mice; type: in vivo, C57BL/6J mice; details: days 5-37
# Method: Female C57BL/6J mice were immunized with MOG35-55 antigen emulsion. 2 hours after immunization, each animal was injected with 200 ng/100 μL PTX solution intraperitoneally. After 24 hours (the second day), the same dose of PTX solution was injected once again. On the fifth day, the animals in each group began to administer the drug, and each group was given the drug by gavage, with a dosage of 10 mL/kg, once a day for 33 consecutive days (days 5-37). During the experiment, general clinical observation was carried out twice a day, and the weight and EAE clinical scores were measured once a day after administration. The score was divided into five grades: (0. normal mice, no obvious disease; 1. tail weakness or hind limb weakness; 2. tail weakness and hind limb weakness; 3. hemiplegia of hind limbs; 4. complete paralysis of hind limbs; 5, died of EAE or euthanasia in near-death state).
# [2] = In vivo pharmacokinetics in rats, intravenous injection and oral administration; set-up: species or system Sprague Dawley rats; details: rat; for AUC(0-inf) / clearance / half-life / Cmax: male, Sprague-Dawley, plasma
# Method: In this experimental embodiment, in vivo pharmacokinetic evaluation was performed in rats by intravenous injection and oral administration.
# Experimental methods and conditions: male Sprague Dawley rats were given the test compounds 1 mg/kg (solvent 5% DMSO/15% Solutol/80% Saline) by intravenous injection and 1 mg/kg (solvent 0.5% MC) by oral gavage respectively. 5 min, 15 min, 30 min, 1 hr, 2 hr, 4 hr, 6 hr, 8 hr, 24 hr after administration, blood was collected from submandibular vein, each sample was collected about 0.20 mL, and heparin sodium was used for anti coagulation. After collection, the sample was placed on ice, and the blood was centrifuged to be measured within one hour. Blood drug concentration in plasma was detected by liquid chromatography tandem mass spectrometry (LC/MS/MS), and the pharmacokinetic parameters were calculated by Phoenix WinNonlin software.
# [3] = tested on: DNBS-induced colitis; experiment: Rat colitis model induced by DNBS; type: in vivo, Wistar rats; details: DNBS rats
# Text: The Wistar rat ulcerative enteritis model induced by DNBS (2, 4-dinitrobenzenesulfonic acid) is also one of the commonly used models for development of enteritis drugs. DNBS combines with intestinal tissue protein to form complete antigen, which increases vascular permeability, activates inflammatory transmitters, increases fibrinolytic activity, and makes the body produce immune response against intestinal mucosa, resulting in persistent ulcer and inflammation of intestinal mucosa in rats.
# The experimental animals were Wistar rats, male, 5-6 weeks old, 140-160 g. The animals were kept in SPF room with a room temperature of 20-26° C., a humidity of 40-70%, fluorescent lamp lighting, 12 hours of lighting (08:00-20:00) and 12 hours of no lighting, with 2-5 animals in each cage (same administration group). […]
# Drug treatment: 4 hours after modeling, animals were given with different concentrations of drugs or 0.5% methylcellulose by gavage, 10 mL/kg, once a day for 7 consecutive days. […] After administration, the animals were euthanized, colon tissues were collected, colon length, colon weight and ulcer area were measured, and colon injury in rats was evaluated macroscopically, so as to evaluate the therapeutic effect of the tested drugs on DNBS-induced inflammatory colitis model in rats.
# [4] = tested on: peripheral blood lymphocyte (PBL) count; experiment: Peripheral lymphocyte lowering (PLL) in rats; type: in vivo, Sprague-Dawley rats; details: Rattus norvegicus, oral, 5 hours after administration, read-out: IC50 of peripheral blood lymphocyte (PBL) count decrease
# Method: (§1) Mice: SPF female C57BL/6j mice, weighing 19-22 g. Rats: Male Sprague-Dawley rats, weighing 200-220 g. Feeding environment: the temperature was 23±2° C., the relative humidity was 40-70%, and the lighting time was at 7:00 in the morning to 7:00 in the evening; animals were freely fed with common feed and sterilized drinking water. All animal experiments were approved by the animal ethics committee; all animal experiments were carried out in accordance with the relevant SOP requirements of animal room. Animals were reared adaptively for one week before the experiment.
# (§2) Animals were administered orally with a volume of 10 mL/kg. The vehicle for administration was 0.5% DMSO+0.5% MC. Animals were anesthetized with isoflurane 5 hours after administration, and 100-150 μL of peripheral blood was collected through the eye socket in EP tubes, placed on ice. The lymphocyte count of blood analysis was detected by XT-2000i automated hematology analyzer within 30 minutes. Another 20 μL of whole blood was diluted with 40 μL of DDW, and snap frozen in liquid nitrogen, the concentration of the compounds in blood was detected.
# [5] = tested on: peripheral blood lymphocyte (PBL) count; experiment: Peripheral lymphocyte lowering (PLL) in mice; type: in vivo, C57BL/6j mice; details: Mus musculus, oral, 5 hours after administration, read-out: IC50 of peripheral blood lymphocyte (PBL) count decrease
# Method: as §1, §2
# [6] = cited from earlier work
# [7] = intravenous administration 1 mg/kg
SMILES,disease symptoms (EAE clinical score) ([1]; 1 mg/kg by gavage once a day),disease symptoms (EAE clinical score) ([1]; 5 mg/kg by gavage once a day),"AUC(0-inf) [2, 7]","clearance [2, 7]","half-life [2, 7]",AUC(0-inf) ([2]; oral administration 1 mg/kg),Cmax ([2]; oral administration 1 mg/kg),half-life ([2]; oral administration 1 mg/kg),F ([2]; oral administration 1 mg/kg),area of colonic ulcer ([3]; 0.2 mg/kg by gavage once a day for 7 days),area of colonic ulcer ([3]; 1 mg/kg by gavage once a day for 7 days),IC50 [4],IC50 [5],half-life in human body [6]
Cc1c(CCC(=O)O)[nH]c2ccc(OCc3ccc(C4CCCC4)c(C(F)(F)F)c3)cc12 [Compound 16],significantly reduce,significantly reduce,4140 ng·h/mL,4.17 mL/min/kg,84 min,649 ng·h/mL,162 ng/mL,174 min,13.3%,significantly reduce,significantly reduce,5.3 nM,24.7 nM,
"CCCCCCCCc1ccc(CCC(N)(CO)CO)cc1 [FTY720, Fingolimod]",,,,,,,,,,,,,,6 to 9 days
O=C(O)CCc1[nH]c2ccc(OCc3ccc(C4CCCC4)c(C(F)(F)F)c3)cc2c1Cl [Compound 13],significantly reduce,,4750 ng·h/mL,3.5 mL/min/kg,168 min,1190 ng·h/mL,184 ng/mL,234 min,17.4%,,,4.1 nM,18.5 nM,
